Assay results published in patent publication US6660768B2, “Parasiticidal compositions and methods of use” (Schering-Plough Animal Health Corporation, priority 2001, dated 2003).

Assay: Example 3B: solubility of permethrin in PM (propylene glycol monomethyl ether), DM (diethylene glycol monomethyl ether) and PM or DPM (dipropylene glycol monomethyl ether)/d-limonene mixtures at low temperatures, seeded
Procedure: These solutions were poured into 100 mL tubes with screw top caps. These tubes were placed in the cold water bath and allowed to come to equilibrium at the temperature of the bath. […] The seeded preparations were then thoroughly shaken, replaced in the bath and allowed to remain in the bath for a 24 hour period. The preparations were then examined for crystallization, then again thoroughly agitated and replaced in the bath for an additional time period. Samples of the supernatant were removed after additional crystallization had occurred.
The solvent mixtures tested were: dipropylene glycol monomethyl ether/d-limonene and propylene glycol monomethyl ether/d-limonene.
These solvent mixtures were evaluated at ratios of 2:1, 1:1, 1:2, and then at 8:2 and 9:1 (the first number refers to one of the glycol ethers, the second number refers to d-limonene).

## CC1(C)C(C=C(Cl)Cl)C1C(=O)OCc1cccc(Oc2ccccc2)c1 (stereo not drawn) [permethrin]
65% permethrin in PM/d-limonene, 67% d-limonene of solvent mixture, 10° C.
  % Total Permethrin: 65.95%
65% permethrin in PM/d-limonene, 100% d-limonene of solvent mixture, 0° C.
  % Total Permethrin: 60.27%
65% permethrin in PM/d-limonene, 100% d-limonene of solvent mixture, 5° C.
  % Total Permethrin: 62.73%
65% permethrin in PM/d-limonene, 100% d-limonene of solvent mixture, 10° C.
  % Total Permethrin: 65.88%
70% permethrin in DPM/d-limonene, 0% d-limonene of solvent mixture, 0° C.
  % Total Permethrin: 64.24%
70% permethrin in DPM/d-limonene, 0% d-limonene of solvent mixture, 5° C.
  % Total Permethrin: 65.56%
70% permethrin in DPM/d-limonene, 0% d-limonene of solvent mixture, 10° C.
  % Total Permethrin: 66.58%
70% permethrin in DPM/d-limonene, 10% d-limonene of solvent mixture, 10° C.
  % Total Permethrin: 66.95%
70% permethrin in DPM/d-limonene, 20% d-limonene of solvent mixture, 10° C.
  % Total Permethrin: 67.71%
70% permethrin in DPM/d-limonene, 33% d-limonene of solvent mixture, 5° C.
  % Total Permethrin: 69.64%
70% permethrin in DPM/d-limonene, 33% d-limonene of solvent mixture, 10° C.
  % Total Permethrin: 67.38%
70% permethrin in DPM/d-limonene, 50% d-limonene of solvent mixture, 0° C.
  % Total Permethrin: 65.66%
70% permethrin in DPM/d-limonene, 50% d-limonene of solvent mixture, 5° C.
  % Total Permethrin: 68.48%
70% permethrin in DPM/d-limonene, 50% d-limonene of solvent mixture, 10° C.
  % Total Permethrin: 66.70%
70% permethrin in DPM/d-limonene, 67% d-limonene of solvent mixture, 0° C.
  % Total Permethrin: 66.05%
70% permethrin in DPM/d-limonene, 67% d-limonene of solvent mixture, 5° C.
  % Total Permethrin: 69.38%
70% permethrin in DPM/d-limonene, 67% d-limonene of solvent mixture, 10° C.
  % Total Permethrin: 67.98%
70% permethrin in DPM/d-limonene, 100% d-limonene of solvent mixture, 0° C.
  % Total Permethrin: 64.61%
70% permethrin in DPM/d-limonene, 100% d-limonene of solvent mixture, 5° C.
  % Total Permethrin: 66.05%
70% permethrin in DPM/d-limonene, 100% d-limonene of solvent mixture, 10° C.
  % Total Permethrin: 69.30%
70% permethrin in PM/d-limonene, 0% d-limonene of solvent mixture, 0° C.
  % Total Permethrin: 57.91%
70% permethrin in PM/d-limonene, 0% d-limonene of solvent mixture, 5° C.
  % Total Permethrin: 64.79%
70% permethrin in PM/d-limonene, 10% d-limonene of solvent mixture, 10° C.
  % Total Permethrin: 66.70%
70% permethrin in PM/d-limonene, 20% d-limonene of solvent mixture, 10° C.
  % Total Permethrin: 66.92%
70% permethrin in PM/d-limonene, 33% d-limonene of solvent mixture, 0° C.
  % Total Permethrin: 65.20%
70% permethrin in PM/d-limonene, 33% d-limonene of solvent mixture, 5° C.
  % Total Permethrin: 67.36%
70% permethrin in PM/d-limonene, 33% d-limonene of solvent mixture, 10° C.
  % Total Permethrin: 67.80%
70% permethrin in PM/d-limonene, 50% d-limonene of solvent mixture, 0° C.
  % Total Permethrin: 65.36%
70% permethrin in PM/d-limonene, 50% d-limonene of solvent mixture, 5° C.
  % Total Permethrin: 69.65%
70% permethrin in PM/d-limonene, 50% d-limonene of solvent mixture, 10° C.
  % Total Permethrin: 68.40%
70% permethrin in PM/d-limonene, 67% d-limonene of solvent mixture, 0° C.
  % Total Permethrin: 65.94%
70% permethrin in PM/d-limonene, 67% d-limonene of solvent mixture, 5° C.
  % Total Permethrin: 68.33%
70% permethrin in PM/d-limonene, 100% d-limonene of solvent mixture, 0° C.
  % Total Permethrin: 64.61%
70% permethrin in PM/d-limonene, 100% d-limonene of solvent mixture, 5° C.
  % Total Permethrin: 66.05%
DM, 5° C., Original % permethrin 50
  % permethrin remaining in solution: 46.00%
DM, 5° C., Original % permethrin 55
  % permethrin remaining in solution: 51.74%
DM, 5° C., Original % permethrin 60
  % permethrin remaining in solution: 55.09%
DM, 5° C., Original % permethrin 65
  % permethrin remaining in solution: 60.22%
DM, 10° C., Original % permethrin 50
  % permethrin remaining in solution: 46.80%
DM, 10° C., Original % permethrin 55
  % permethrin remaining in solution: 50.72%
DM, 10° C., Original % permethrin 60
  % permethrin remaining in solution: 56.17%
DM, 20° C., Original % permethrin 50
  % permethrin remaining in solution: 50.55%
DM, 20° C., Original % permethrin 55
  % permethrin remaining in solution: 55.14%
DM, 20° C., Original % permethrin 60
  % permethrin remaining in solution: 60.05%
DM, 20° C., Original % permethrin 65
  % permethrin remaining in solution: 64.85%
DM, 20° C., Original % permethrin 75
  % permethrin remaining in solution: 74.20%
DM, 25° C., Original % permethrin 50
  % permethrin remaining in solution: 49.43%
DM, 25° C., Original % permethrin 55
  % permethrin remaining in solution: 53.98%
DM, 25° C., Original % permethrin 60
  % permethrin remaining in solution: 61.10%
DM, 25° C., Original % permethrin 65
  % permethrin remaining in solution: 64.25%
DM, 25° C., Original % permethrin 75
  % permethrin remaining in solution: 74.53%
PM, 5° C., Original % permethrin 50
  % permethrin remaining in solution: 46.61%
PM, 5° C., Original % permethrin 55
  % permethrin remaining in solution: 52.71%
PM, 5° C., Original % permethrin 60
  % permethrin remaining in solution: 56.69%
PM, 5° C., Original % permethrin 65
  % permethrin remaining in solution: 61.50%
PM, 5° C., Original % permethrin 75
  % permethrin remaining in solution: 70.89%
PM, 10° C., Original % permethrin 60
  % permethrin remaining in solution: 59.08%
PM, 10° C., Original % permethrin 65
  % permethrin remaining in solution: 61.63%
PM, 10° C., Original % permethrin 75
  % permethrin remaining in solution: 72.22%
PM, 20° C., Original % permethrin 50
  % permethrin remaining in solution: 50.60%
PM, 20° C., Original % permethrin 55
  % permethrin remaining in solution: 55.54%
PM, 20° C., Original % permethrin 60
  % permethrin remaining in solution: 61.27%
PM, 20° C., Original % permethrin 65
  % permethrin remaining in solution: 66.25%
PM, 20° C., Original % permethrin 75
  % permethrin remaining in solution: 76.84%
PM, 25° C., Original % permethrin 50
  % permethrin remaining in solution: 51.28%
PM, 25° C., Original % permethrin 55
  % permethrin remaining in solution: 56.19%
PM, 25° C., Original % permethrin 60
  % permethrin remaining in solution: 60.99%
PM, 25° C., Original % permethrin 65
  % permethrin remaining in solution: 66.71%
PM, 25° C., Original % permethrin 75
  % permethrin remaining in solution: 75.82%
